Data reported in patent publication US11155539B2, “4-pyridinylmethyl-morpholine derivatives and the use thereof as medicament” (Boehringer Ingelheim International GmbH, priority 2018, dated 2021).

How the values were obtained:
Nav1.6 = Nav1.6 (Homo sapiens, UniProt Q9UQD0); assay: Nav 1.6 inhibition, IonWorks Quattro electrophysiology; assay type: cell-based; conditions: for inhibition at 1 µM / inhibition at 5 µM: normalized to vehicle control (0%) and maximal inhibition control (100%)
Method in brief: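 Human Nav1.6 currents recorded on IonWorks Quattro with amphotericin B (200 μg/ml) perforated access; compounds at final 1 and 5 μM in 0.3% DMSO. Cells held at −120 mV, prepulsed to 0 mV for 2500 ms, 10 ms recovery at −120 mV, then 20 ms test pulse to 0 mV; values are normalized percentage inhibition.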

MDR1 (P-gp) = biological target: T1, MDR1 (P-gp) (Homo sapiens, UniProt P08183); assay: MDCK assay P-gp (permeability across MDCK-MDR1 monolayers); assay type: in vitro ADME; conditions: for Papp A→B at 2 h: apical-to-basal, MDCK-MDR1 monolayers, pH 7.4; for efflux ratio at 2 h: pH 7.4, Papp (b-a) divided by Papp (a-b), MDCK-MDR1, read-out: efflux ratio PEBA/PEAB
T1 construct: expressed in transfected cells; host or cells: MDCKII (Madin-Darby canine kidney)
Procedure: The MDCK assays provide information on the potential of a compound to pass the blood brain barrier. Permeability measurements across polarized, confluent MDCK-MDR1 cell monolayers grown on permeable filter supports are used as an in vitro absorption model: apparent permeability coefficients (PE) of the compounds across the MDCK-MDR1 cell monolayers are measured (pH 7.4, 37° C.) in apical-to-basal (AB) and basal-to-apical (BA) transport direction. The AB permeability (PEAB) represents drug absorption from the blood into the brain and the BA permeability (PEBA) drug efflux from the brain back into the blood via both, passive permeability as well as active transport mechanisms mediated by efflux and uptake transporters that are expressed on the MDCK-MDR1 cells, predominantly by the overexpressed human MDR1. Identical or similar permeabilities in both transport directions indicate passive permeation (PEBA/PEAB≤1), vectorial permeability points to additional active transport mechanisms. Higher PEBA than PEAB (PEBA/PEAB>5) indicates the involvement of active efflux mediated by MDR1, which might compromise the goal to achieve sufficient brain exposure. Therefore, this assay provides valuable support for selection of compounds applicable for further in vivo testing. High permeability not limited by efflux at the blood brain barrier is a favorable characteristic for compounds that are to be used for drugs acting primarily in the CNS.
Apparent permeability coefficients (Papp) of the compounds across the MDCK-MDR1 monolayers (MDCKII cells transfected with human MDR1 cDNA expression plasmid) are measured in apical-to-basal (AB) and basal-to-apical (BA) direction. MDCK-MDR1 cells (6×10^5 cells/cm^2) are seeded on filter inserts (Corning, Transwell, polycarbonate, 0.4 μm pore size) and cultured for 9 to 10 days. Compounds dissolved in DMSO stock solution (1-20 mM) are diluted with HTP-4 aqueous buffer (128.13 mM NaCl, 5.36 mM KCl, 1 mM MgSO4, 1.8 mM CaCl2, 4.17 mM NaHCO3, 1.19 mM Na2HPO4, 0.41 mM NaH2PO4, 15 mM HEPES, 20 mM glucose, pH 7.4) supplemented with 0.25% BSA to prepare the transport solutions (final concentration: 1 or 10 μM, final DMSO<=0.5%). The transport solution is applied to the apical or basolateral donor side for measuring A-B or B-A permeability, respectively. The receiver side contains HTP-4 buffer supplemented with 0.25% BSA. Samples are collected at the start and end of experiment from the donor and at various time intervals for up to 2 hours also from the receiver side for concentration measurement by HPLC-MS/MS (RapidFire High-throughput MS System (Agilent) coupled to QTrap 6500 (AB Sciex) or TSQ Vantage (Thermo Scientific)). Sampled receiver volumes are replaced with fresh receiver solution. Efflux ratio is calculated dividing the Papp (b-a) values by the Papp (a-b) values.

T1 sequence (P08183 whole entry): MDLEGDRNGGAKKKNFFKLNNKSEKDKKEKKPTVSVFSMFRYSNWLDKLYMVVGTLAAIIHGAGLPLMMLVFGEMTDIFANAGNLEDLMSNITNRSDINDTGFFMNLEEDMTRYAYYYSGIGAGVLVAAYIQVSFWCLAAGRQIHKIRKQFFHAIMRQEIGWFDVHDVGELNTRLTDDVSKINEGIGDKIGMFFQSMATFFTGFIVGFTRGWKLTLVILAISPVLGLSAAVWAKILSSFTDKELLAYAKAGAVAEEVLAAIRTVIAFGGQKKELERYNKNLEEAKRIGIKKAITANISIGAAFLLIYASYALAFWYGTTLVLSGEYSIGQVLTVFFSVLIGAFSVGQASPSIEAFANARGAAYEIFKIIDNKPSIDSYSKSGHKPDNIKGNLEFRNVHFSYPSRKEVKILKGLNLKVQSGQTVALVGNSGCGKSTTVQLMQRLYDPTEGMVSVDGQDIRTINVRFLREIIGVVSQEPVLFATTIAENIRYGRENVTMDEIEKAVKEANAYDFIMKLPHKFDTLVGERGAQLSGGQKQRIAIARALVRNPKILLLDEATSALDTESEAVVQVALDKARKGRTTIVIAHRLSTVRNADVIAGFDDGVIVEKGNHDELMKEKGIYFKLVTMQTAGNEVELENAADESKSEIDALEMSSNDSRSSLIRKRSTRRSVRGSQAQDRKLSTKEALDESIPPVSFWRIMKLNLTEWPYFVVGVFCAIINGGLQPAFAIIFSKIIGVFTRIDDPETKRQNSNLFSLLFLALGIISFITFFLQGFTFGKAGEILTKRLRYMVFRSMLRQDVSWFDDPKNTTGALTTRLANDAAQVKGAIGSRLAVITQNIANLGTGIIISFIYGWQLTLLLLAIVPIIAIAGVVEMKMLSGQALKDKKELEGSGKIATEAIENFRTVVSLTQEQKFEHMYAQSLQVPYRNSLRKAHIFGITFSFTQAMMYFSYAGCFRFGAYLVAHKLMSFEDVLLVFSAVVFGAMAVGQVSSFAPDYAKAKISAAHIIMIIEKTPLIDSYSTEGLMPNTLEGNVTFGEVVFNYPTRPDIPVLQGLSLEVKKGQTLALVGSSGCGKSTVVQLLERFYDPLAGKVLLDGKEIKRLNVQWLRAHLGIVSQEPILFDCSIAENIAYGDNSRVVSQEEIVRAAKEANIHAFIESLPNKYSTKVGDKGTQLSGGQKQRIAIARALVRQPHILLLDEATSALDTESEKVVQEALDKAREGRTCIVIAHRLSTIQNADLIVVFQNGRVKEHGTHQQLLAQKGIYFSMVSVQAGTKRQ
Nav1.6, sequence (Q9UQD0 whole entry): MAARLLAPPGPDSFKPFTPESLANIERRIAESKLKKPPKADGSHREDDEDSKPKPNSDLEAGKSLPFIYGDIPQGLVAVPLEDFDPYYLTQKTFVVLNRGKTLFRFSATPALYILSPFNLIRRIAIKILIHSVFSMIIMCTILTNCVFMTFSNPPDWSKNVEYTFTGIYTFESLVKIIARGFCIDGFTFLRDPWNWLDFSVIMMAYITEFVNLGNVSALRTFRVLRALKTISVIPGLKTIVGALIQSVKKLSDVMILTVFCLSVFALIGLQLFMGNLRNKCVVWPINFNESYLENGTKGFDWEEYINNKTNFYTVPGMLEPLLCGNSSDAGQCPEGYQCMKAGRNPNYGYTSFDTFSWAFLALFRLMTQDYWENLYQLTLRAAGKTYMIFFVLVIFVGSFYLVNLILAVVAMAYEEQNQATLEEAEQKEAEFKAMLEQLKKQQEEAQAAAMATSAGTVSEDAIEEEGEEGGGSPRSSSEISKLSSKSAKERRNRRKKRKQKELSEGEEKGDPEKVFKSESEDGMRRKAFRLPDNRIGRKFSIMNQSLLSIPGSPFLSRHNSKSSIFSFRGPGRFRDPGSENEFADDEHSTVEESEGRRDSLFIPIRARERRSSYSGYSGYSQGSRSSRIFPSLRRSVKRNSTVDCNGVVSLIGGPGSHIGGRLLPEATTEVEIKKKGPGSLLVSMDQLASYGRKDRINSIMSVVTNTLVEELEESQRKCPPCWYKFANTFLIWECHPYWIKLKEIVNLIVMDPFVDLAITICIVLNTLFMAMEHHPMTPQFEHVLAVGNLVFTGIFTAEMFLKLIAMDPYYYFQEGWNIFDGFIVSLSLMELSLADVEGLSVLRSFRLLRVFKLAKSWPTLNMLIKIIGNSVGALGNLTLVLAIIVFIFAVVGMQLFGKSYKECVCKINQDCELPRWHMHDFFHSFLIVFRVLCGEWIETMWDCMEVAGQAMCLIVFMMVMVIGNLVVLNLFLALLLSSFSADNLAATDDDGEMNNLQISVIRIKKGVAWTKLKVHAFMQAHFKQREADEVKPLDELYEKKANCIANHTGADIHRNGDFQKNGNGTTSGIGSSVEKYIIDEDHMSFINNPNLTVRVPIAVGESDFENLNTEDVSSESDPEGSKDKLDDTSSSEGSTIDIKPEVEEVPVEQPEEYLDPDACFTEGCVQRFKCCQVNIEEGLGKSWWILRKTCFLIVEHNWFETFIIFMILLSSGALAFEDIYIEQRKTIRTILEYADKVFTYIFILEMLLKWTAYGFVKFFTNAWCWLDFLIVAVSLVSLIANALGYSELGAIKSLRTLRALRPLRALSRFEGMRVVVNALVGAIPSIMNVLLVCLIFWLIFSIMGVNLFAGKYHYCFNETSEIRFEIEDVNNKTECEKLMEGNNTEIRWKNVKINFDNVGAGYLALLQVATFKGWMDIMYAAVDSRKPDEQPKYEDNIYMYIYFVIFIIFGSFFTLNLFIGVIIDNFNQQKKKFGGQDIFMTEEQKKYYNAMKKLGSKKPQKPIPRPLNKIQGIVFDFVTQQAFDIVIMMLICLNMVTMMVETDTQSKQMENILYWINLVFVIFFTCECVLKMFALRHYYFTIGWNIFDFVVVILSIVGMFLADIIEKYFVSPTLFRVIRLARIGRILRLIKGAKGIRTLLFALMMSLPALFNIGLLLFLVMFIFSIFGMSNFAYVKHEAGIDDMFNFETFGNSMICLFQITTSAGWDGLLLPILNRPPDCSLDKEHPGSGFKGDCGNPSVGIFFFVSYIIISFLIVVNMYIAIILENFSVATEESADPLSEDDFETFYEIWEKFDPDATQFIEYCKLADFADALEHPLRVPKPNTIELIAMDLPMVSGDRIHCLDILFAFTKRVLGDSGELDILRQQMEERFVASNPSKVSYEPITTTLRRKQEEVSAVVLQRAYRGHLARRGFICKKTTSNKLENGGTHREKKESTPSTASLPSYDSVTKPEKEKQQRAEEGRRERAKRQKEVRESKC

inhibition at 1 µM (Nav1.6)	inhibition at 5 µM (Nav1.6)	Papp A→B at 2 h (MDR1 (P-gp))	efflux ratio at 2 h (MDR1 (P-gp))	significant inhibition of the Nav 1.6 channel (in words) (Nav1.6; at 5 μM)	Compound
7.6%	6.8%	86 ×10⁻⁶ cm/s	0.5		CNC(=O)[C@@H]1CN(Cc2ccc(Oc3ccc(F)cc3)cn2)CCO1 [Example 30]
1.8%	3%	58 ×10⁻⁶ cm/s	0.8		CNC(=O)[C@@H]1CN(Cc2ccc(Oc3ccc(C)cc3)nc2)CCO1 [Example 29]
22%	-4.3%	67 ×10⁻⁶ cm/s	0.6		CNC(=O)[C@@H]1CN(Cc2ccc(Oc3ccccc3Cl)nc2)CCO1 [Example 17]
5.2%	-6.3%	75 ×10⁻⁶ cm/s	0.7	not showing any significant inhibition	CNC(=O)[C@@H]1CN(Cc2ccc(Oc3ccccc3F)nc2)CCO1 [Example 19]
